Test results taken from US11938103B2, “Potentiation of helminth treatment” (Elanco Tiergesundheit AG, priority 2018, dated 2024).

Legend:
[1] = system: Fasciola hepatica (early immature stage); assay: Efficacy against early immature stage F. hepatica infection in cattle (Example 5); type: in vivo; conditions: single oral dose day 21, livers day 91 or 92, diamphenethide 40 mg/kg, clorsulon 7 mg/kg, combination 40 and 7 mg/kg; for % Efficacy using Arithmetic mean / % Efficacy using Geometric Mean: vs untreated control
Description: (§1) Doses were administered orally from suitably sized disposable syringes.
(§2) The fluke counts and body weights were log-transformed (after adding a constant of 1 to the fluke counts only) and the distribution of the transformed data checked to see if they satisfied the assumption of normal distribution.
(§3) Arithmetic means (Amean), geometric means (Gmean), median and ranges were summarized for fluke counts, fluke measurements and bodyweight. A constant of one was applied for calculation of geometric means of fluke counts.
(§4) The percentage efficacy for each treated group was calculated as follows: % Efficacy=100×(FCC−FCT)/FCC where FCC is the arithmetic mean fluke count of the control group and FCT is the arithmetic mean fluke count of the treated group. The formula was also applied using mean geometric fluke counts; these were calculated using log transformed data with 1 added as a constant to each fluke count and then subtracted following transformation.
(§5) Note that expected synergy is defined as: 1−Efficacy(expected without synergy)=(1−EfficacyD)×(1−EfficacyC).
This study was to assess the efficacy of diamphenethide (40 mg/kg) given concurrently with clorsulon (7 mg/kg), diamphenethide alone (40 mg/kg), and clorsulon alone (7 mg/kg) against F. hepatica in cattle with treatment on day 21. This was a controlled, blinded, randomized study.
On day 0, the calves were experimentally infected with a single isolate of approximately 350 Sunny Corner (Fashep-66) isolate F. hepatica metacercariae. The required number of metacerceriae were made up in 2% carboxymethyl cellulose. Syringes were checked post-infection for retained metacerceriae. The infection was administered orally and each infective dose was followed by water administered orally. The cattle were randomized into treatment groups on the basis of day 20 body weight and allocated to groups as denoted in Table 5.1.
Body weight was determined one day prior to treatment. All treatments were measured by volume and rounded to the nearest 0.1 mL. On day 21, and before feeding, the individual animals were treated once only with the treatment in Table […]. […] Untreated control animals were also fed at this time.
(§6) The liver with gall bladder and bile ducts intact were recovered from each animal on day 91 or 92 and processed for F. hepatica counts. The assessment of efficacy was based on the number of live fluke removed from the liver.

[2] = system: Fasciola hepatica (early immature stage); assay: Efficacy against early immature stage F. hepatica infection in sheep (Example 3); type: in vivo; conditions: single oral dose day 14, livers day 91, diamphenethide 20 mg/kg, clorsulon 10 mg/kg, combination 20 and 10 mg/kg; for % Efficacy using Arithmetic mean / % Efficacy using Geometric Mean: vs untreated control
Description: as §1, §2, §3, §4, §5
This study was to assess the efficacy of diamphenethide (20 mg/kg) given concurrently with clorsulon (10 mg/kg), diamphenethide alone (20 mg/kg), and clorsulon alone (10 mg/kg) against F. hepatica in sheep with treatment on day 14. This was a controlled, blinded, randomized study using sheep.
On day 0, the sheep were experimentally infected with a target of 200 “Sunny Corner” (laboratory strain reference Fashep-66) F. hepatica metacercariae. The required number of metacercariae were prepared for infection in a water and 2% carboxymethylcellulose solution. Each infective dose was followed by water administered orally.
The sheep were randomized into treatment groups on the basis of day 13 body weight and allocated to groups as denoted in Table 3.1. Animals were treated on day 14 with a single dose as noted in Table 3.1.
Body weight was determined one day prior to treatments, which were measured by volume and rounded to the nearest 0.1 mL. On day 14, and before feeding, the individual animals were treated once only with the Treatment in Table 3.1. […] Untreated control animals were also fed at this time.
The liver with gall bladder and common bile duct intact were recovered on day 91 from each animal and processed for F. hepatica counts. The assessment of efficacy was based on the number of live fluke removed from the liver.
An ANOVA model was used to compare fluke counts between treatment groups. The model was applied to the log-transformed counts. There was one fixed effect, treatment group.

[3] = system: Fasciola hepatica (immature stage); assay: Efficacy against immature stage F. hepatica infection in cattle (Example 4); type: in vivo; conditions: single oral dose day 49, livers day 91 or 92, diamphenethide 60 mg/kg, clorsulon 5 mg/kg, combination 60 and 5 mg/kg; for % Efficacy using Arithmetic mean / % Efficacy using Geometric Mean: vs untreated control
Description: as §1, §2, §3, §4, §5
This study was to assess the efficacy of diamphenethide (60 mg/kg) given concurrently with clorsulon (5 mg/kg), diamphenethide alone (60 mg/kg), and clorsulon alone (5 mg/kg) against F. hepatica in cattle with treatment on day 49. This was a controlled, blinded, randomized study.
On day 0, the calves were experimentally infected with a single isolate of approximately 382 Sunny Corner (Fashep-66) isolate F. hepatica metacercariae. The required number of metacerceriae were made up in 2% carboxymethyl cellulose. Syringes were checked post-infection for retained metacerceriae. The infection was administered orally and each infective dose was followed by water administered orally. The cattle were randomized into treatment groups on the basis of day 48 body weight and allocated to groups as denoted in Table 4.1.
Body weight was determined one day prior to treatment. All treatments were measured by volume and rounded to the nearest 0.1 mL. On day 49, and before feeding, the individual animals were treated once only with the treatment in Table 4.1. […] Untreated control animals were also fed at this time.
as §6

[4] = deacylation to DAMD; cited from earlier work
liver flukes = conditions: cited from earlier work
[5] = system: Fasciola hepatica (immature stage); assay: Efficacy against immature stage F. hepatica infection in sheep (Example 2); type: in vivo; conditions: single oral dose day 42, livers day 91, diamphenethide 40 mg/kg, clorsulon 3.5 mg/kg, combination 40 and 3.5 mg/kg; for % Efficacy using Arithmetic mean / % Efficacy using Geometric Mean: vs untreated control
Description: In the following examples, all animals were confirmed free of infection with F. hepatica and found clinically healthy by a veterinarian prior to enrollment in the study. Doses were administered orally from suitably sized disposable syringes. […] Differences between treatment groups were analyzed by analysis of variance methods (ANOVA), as the assumptions of normal distribution were satisfied for log-transformed fluke count and log-transformed bodyweight, as well as for (untransformed) fluke measurements. Arithmetic […]), geometric […]), median and ranges were summarized for fluke counts, fluke measurements and bodyweight. A constant of one was applied for calculation of geometric means of fluke counts. […] On day 0, the sheep were experimentally infected with a target of 200 “Sunny Corner” (laboratory strain reference […]. hepatica […]. The required number of […] prepared for infection in a water and 4% carboxymethylcellulose solution. Each infective dose was followed by water administered orally. Syringes were subsequently checked post-infection for retained […] was determined that the sheep were administered between 93.5% and 100% (98.3% on average) of the target infective dose. The sheep were randomized into treatment groups on the basis of day 41 body weight and allocated to groups as denoted in Table 2.1. Body weight was determined one day prior to treatments, which were measured by volume and rounded to the nearest 0.1 mL. On day 42, and before feeding, the individual animals were treated once only with the Treatment in Table 2.1. Once the animals had been treated they were returned to their pens and fed within one hour. Untreated control animals were also fed at this time. The liver with gall bladder and common bile duct intact were recovered on day 91 from each animal and processed for F. hepatica counts. The assessment of efficacy was based on the number of live fluke removed from the liver. An ANOVA model was used to compare fluke counts between treatment groups. The model was applied to the log-transformed counts. There was one fixed effect, treatment group.

Fasciola hepatica = conditions: cited from earlier work

Structure (SMILES): CC(=O)Nc1ccc(OCCOCCOc2ccc(NC(C)=O)cc2)cc1 [Diamphenethide, N-[4-[2-[2-(4-acetamidophenoxy)ethoxy]ethoxy]phenyl]acetamide]
- Fluke Count, Arithmetic mean [1]: 54.2
- Fluke Count, Geometric Mean [1]: 53.1
- % Efficacy using Arithmetic mean [1]: 30.7%
- % Efficacy using Geometric Mean [1]: 27.5%
- Fluke Count, Arithmetic mean [2]: 89.0
- Fluke Count, Geometric Mean [2]: 87.5
- % Efficacy using Arithmetic mean [2]: 40.0%
- % Efficacy using Geometric Mean [2]: 36.3%
- Fluke Count, Arithmetic mean [3]: 73.8
- Fluke Count, Geometric Mean [3]: 61.8
- % Efficacy using Arithmetic mean [3]: 12.1%
- % Efficacy using Geometric Mean [3]: 26.0%
- Metabolism [4]: rapidly metabolized by deacylation
- Effectiveness against early immature flukes (liver flukes; early immature flukes up to 6 weeks of age): highly effective
- Activity against flukes as they develop to maturity (liver flukes; flukes developing to maturity): progressively lower activity
- Fluke Count, Arithmetic mean [5]: 57.6
- Fluke Count, Geometric Mean [5]: 50.9
- % Efficacy using Arithmetic mean [5]: 36.1%
- % Efficacy using Geometric Mean [5]: 41.5%

Structure (SMILES): Cc1cc(C(C#N)c2ccc(Cl)cc2)c(Cl)cc1NC(=O)c1cc(I)cc(I)c1O (stereo not drawn) [closantel]
- Side resistance in rafoxanide-resistant F. hepatica isolates (Fasciola hepatica; F. hepatica isolates, New South Wales): side resistance to closantel was evident

Structure (SMILES): Nc1cc(C(Cl)=C(Cl)Cl)c(S(N)(=O)=O)cc1S(N)(=O)=O [Clorsulon, 4-amino-6-(1,2,2-trichloroethenyl)benzene-1,3-disulfonamide]
- Fluke Count, Arithmetic mean [1]: 45.2
- Fluke Count, Geometric Mean [1]: 42.4
- % Efficacy using Arithmetic mean [1]: 42.2%
- % Efficacy using Geometric Mean [1]: 42.1%
- Fluke Count, Arithmetic mean [2]: 99.8
- Fluke Count, Geometric Mean [2]: 90.6
- % Efficacy using Arithmetic mean [2]: 28.2%
- % Efficacy using Geometric Mean [2]: 34.0%
- Fluke Count, Arithmetic mean [3]: 72.6
- Fluke Count, Geometric Mean [3]: 70.7
- % Efficacy using Arithmetic mean [3]: 13.6%
- % Efficacy using Geometric Mean [3]: 15.3%
- Effectiveness by host species (liver flukes; cattle versus sheep): more effective in cattle than in sheep
- Effectiveness against mature flukes (liver flukes; mature flukes): effective against mature flukes
- Fluke Count, Arithmetic mean [5]: 81.8
- Fluke Count, Geometric Mean [5]: 79.7
- % Efficacy using Arithmetic mean [5]: 9.3%
- % Efficacy using Geometric Mean [5]: 8.4%

Structure (SMILES): O=C(Nc1ccc(Oc2ccc(Cl)cc2)c(Cl)c1)c1cc(I)cc(I)c1O [rafoxanide]
- Isolates showing resistance at recommended doses (Fasciola hepatica; ten of seventeen F. hepatica isolates from different geographical regions): 58.8%
